The subject of one test is RAW264.7 cells. Briefly: LPS-induced IL-10 production in RAW264.7 cells. It counts as cell-based. Particulars: 5 μl of 10 mM solution per 0.5 ml, 5 hours before LPS; 18 hours; FIG. 18. The procedure:
RAW264.7 cells (ATCC TIB 71) were suspended in Dulbecco's modified Eagle's medium (Bio Whittaker, 12-604F) containing 10% fetal calf serum (Gibco) at a concentration of 3×10^5 cells/ml. 0.5 ml of the suspension was added to each well of a 48-well microtiter plate and the plate was incubated at 37° C. overnight in the presence of 5% CO2. 5 μl of a solution containing agarobiose or agarohexaose in Referential Example 1 at a concentration of 10 mM in water was added to the well. After incubation for additional 5 hours, 5 μl of a solution of lipopolysaccharide (LPS, Sigma, L-2012) at a concentration of 100 μg/ml in water was added the well. After incubation for 18 hours, a culture supernatant was collected. The content of interleukin 10 (IL-10) in the culture supernatant was measured using enzyme immuno sandwich assay. As a control, a group to which the sample or the LPS aqueous solution was not added was provided. All of the measurements were carried out in duplicate.

The next test deals with heme oxygenase 1 protein. Description: Heme oxygenase 1 induction in RAW264.7 cells (Western blot). The test is classed as cell-based. Particulars: 15 hours. Further details: key: − represents no band observed; increase in the intensity of the band is represented as follows:+−<+<++; increase in the intensity of the band is represented as follows:+−<+<++; increase in the intensity of the band is represented as follows:+−<+<++. The procedure:
RAW264.7 cells (ATCC TIB 71) were suspended in Dulbecco's modified Eagle's medium (Bio Whittaker, 12-604F) containing 10% fetal calf serum (Gibco) at a concentration of 3×10^5 cells/ml. 5 ml of the suspension was added to each well of a 6-well microtiter plate and the plate was incubated at 37° C. overnight in the presence of 5% CO2. 50 μl of a solution containing agarobiose or agarohexaose in Referential Example 1 at a concentration of 20 mM, 10 mM or 5 mM in water was added to the well. The plate was incubated for 15 hours. A positive control for heme oxygenase 1 induction in which 5 μl of 3 mM solution of 15-deoxy-Δ12,14 prostaglandin J2 (Cayman Chemical, 18570) in dimethyl sulfoxide was added, and a negative control in which water was added were provided. The cells were recovered by detaching the cells from the plate using a scraper and suspended in 0.1 M tris-HCl buffer (pH 7.5) containing 0.05 mM pepstatin A (Sigma, P5318), 0.2 mM leupeptin (Sigma, L2884), 1 mM phenylmethylsulfonyl fluoride (Nacalai Tesque, 273-27), 10 mm ethylenediaminetetraacetic acid disodium salt and 0.1% Triton X-100. A supernatant obtained by centrifuging the suspension after freezing and thawing was used as a protein fraction. The content of protein in the protein fraction was determined using Micro BCA Protein Assay Reagent (a product of Pierce sold by Takara Shuzo, P7411). A sample from the protein fraction prepared as described above was mixed with an equal volume of 0.125 M tris-hydrochloride buffer (pH 6.8) containing 4% sodium lauryl sulfate (SDS), 2% 2-mercaptoethanol, 0.001% Bromophenol Blue and 20% glycerol. After treatment at 100° C. for 5 minutes, a portion corresponding to 10 μg of protein was loaded on 12.5% SDS-polyacrylamide gel and electrophoresed at a constant current of 20 mA. After electrophoresis, the gel was transferred to a PVDF membrane (Millipore, IPVH000 10) at a constant voltage of 15 V for 25 minutes using a blotting buffer (containing 48 mM tris, 39 mM glycine, 20% methanol and 0.0375% SDS) and Trans-Blot SD Cell Semi-Dry blotting apparatus (Bio-Rad) according to the attached protocol. After transferring, the PVDF membrane was blocked in a solution of Block Ace (Dainippon Pharmaceutical, UK-B25) at 4° C. overnight. After blocking, the membrane washed three times in phosphate buffered saline containing 0.1% Tween 20 for 15 minutes with gentle shaking. The membrane was reacted in phosphate buffered saline containing 10% Block Ace, 0.1% Tween 20 and 200 ng/ml of anti-heme oxygenase 1 antibody (N-19; Santa Cruz, sc-7696) at room temperature for 1 hour with gentle shaking, and then washed three times in phosphate buffered saline containing 0.1% Tween 20 for 15 minutes with gentle shaking. The membrane was reacted in phosphate buffered saline containing 10% Block Ace, 0.1% Tween 20 and 0.1% peroxidase-labeled rabbit anti-goat IgG (H+L) antibody (Zymed, 61-1620) at room temperature for 1 hour with gentle shaking, and then washed five times in phosphate buffered saline containing 0.1% Tween 20 for 15 minutes with gentle shaking. The PVDF membrane was stained using Western Blot Chemiluminescence Reagent Plus (a product of NEN Life Science Products sold by Daiichi Pure Chemicals, NEL103) according to the attached protocol and exposed to an X-ray film (Kodak, CAT165 1454). After exposure, the film was developed using FPM800 (Fuji Film).
The intensity of the band depended on the concentration of agarobiose or agarohexaose. In the table, the intensity of the band for heme oxygenase 1 protein is expressed by the mark+. Specifically, − represents no band observed, and increase in the intensity of the band is represented as follows:+−<+<++.

As to `OCC1OC(OC2C3COC2C(O)C(OC2C(O)C(CO)OC(OC4C5COC4C(O)C(OC4C(O)C(CO)OC(OC6C7COC6C(O)C(O)O7)C4O)O5)C2O)O3)C(O)C(O)C1O` (centres unmarked) [Agarohexaose, agarohexaose], the “LPS-induced IL-10 production” value in the test with RAW264.7 cells was “inhibition of LPS-induced IL-10 production”. In addition, the “Intensity of band for heme oxygenase 1 protein” value is “+−” in the test with heme oxygenase 1 protein (final concentration of 50 μM), “+” in the test on heme oxygenase 1 protein (final concentration of 100 μM) and “++” in the test with heme oxygenase 1 protein (final concentration of 200 μM).

Regarding `OC[C@H]1O[C@@H](O[C@H]2[C@H]3OC[C@@H]2OC(O)[C@H]3O)[C@H](O)[C@@H](O)[C@H]1O` (mixture of isomers) [Agarobiose, agarobiose], the “LPS-induced IL-10 production” value in the test with RAW264.7 cells was “inhibition of LPS-induced IL-10 production”. The figures for the “Intensity of band for heme oxygenase 1 protein” value in the test on heme oxygenase 1 protein (final concentration of 50 μM), in the test on heme oxygenase 1 protein (final concentration of 100 μM) and with heme oxygenase 1 protein (final concentration of 200 μM) were “+−”, “+” and “++”, respectively.

Source of the values: patent US6608032B1, “Medicinal compositions” (Takara Shuzo Co., Ltd., priority 1999, dated 2003).
